Literature values in US8551975B1, “Hyaluronic acid in soft gel form” (Soft Gel Technologies, Inc., priority 2001, dated 2013).

Hyaluronic Acid [HA]
half-life in the epidermis (epidermis, endogenous HA): less than one day
half-life of an HA molecule (normally, endogenous HA synthesized and catabolized in tissues): 2-3 weeks
